Measurements taken from ChEMBL document CHEMBL1201862, “PubChem BioAssay data set” (2004).
The source made the active and inactive calls.

What was measured:
[1] = molecular target: T1, Alkaline phosphatase, tissue-nonspecific isozyme (Homo sapiens, UniProt P05186); assay: inhibition of tissue-nonspecific alkaline phosphatase – biochemical, dose response (AID 488882); assay type: functional
T1 sequence (P05186 whole entry): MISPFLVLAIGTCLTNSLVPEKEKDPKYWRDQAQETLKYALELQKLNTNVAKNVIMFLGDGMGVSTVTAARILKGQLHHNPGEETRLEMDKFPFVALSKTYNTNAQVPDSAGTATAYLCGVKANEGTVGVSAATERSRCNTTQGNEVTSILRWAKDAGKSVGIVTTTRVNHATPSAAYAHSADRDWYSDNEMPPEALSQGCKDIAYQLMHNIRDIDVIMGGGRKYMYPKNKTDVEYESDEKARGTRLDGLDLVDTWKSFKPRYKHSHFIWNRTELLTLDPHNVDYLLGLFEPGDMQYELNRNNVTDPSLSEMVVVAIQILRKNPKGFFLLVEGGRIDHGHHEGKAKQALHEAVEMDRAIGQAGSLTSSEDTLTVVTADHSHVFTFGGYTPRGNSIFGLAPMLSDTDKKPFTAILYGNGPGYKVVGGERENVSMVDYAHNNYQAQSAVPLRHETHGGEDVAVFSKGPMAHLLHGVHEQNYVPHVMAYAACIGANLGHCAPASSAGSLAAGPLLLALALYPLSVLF

[2] = molecular target: T2, Histone-lysine N-methyltransferase NSD2 (Homo sapiens, UniProt O96028); assay type: biochemical
T2 sequence (O96028 whole entry): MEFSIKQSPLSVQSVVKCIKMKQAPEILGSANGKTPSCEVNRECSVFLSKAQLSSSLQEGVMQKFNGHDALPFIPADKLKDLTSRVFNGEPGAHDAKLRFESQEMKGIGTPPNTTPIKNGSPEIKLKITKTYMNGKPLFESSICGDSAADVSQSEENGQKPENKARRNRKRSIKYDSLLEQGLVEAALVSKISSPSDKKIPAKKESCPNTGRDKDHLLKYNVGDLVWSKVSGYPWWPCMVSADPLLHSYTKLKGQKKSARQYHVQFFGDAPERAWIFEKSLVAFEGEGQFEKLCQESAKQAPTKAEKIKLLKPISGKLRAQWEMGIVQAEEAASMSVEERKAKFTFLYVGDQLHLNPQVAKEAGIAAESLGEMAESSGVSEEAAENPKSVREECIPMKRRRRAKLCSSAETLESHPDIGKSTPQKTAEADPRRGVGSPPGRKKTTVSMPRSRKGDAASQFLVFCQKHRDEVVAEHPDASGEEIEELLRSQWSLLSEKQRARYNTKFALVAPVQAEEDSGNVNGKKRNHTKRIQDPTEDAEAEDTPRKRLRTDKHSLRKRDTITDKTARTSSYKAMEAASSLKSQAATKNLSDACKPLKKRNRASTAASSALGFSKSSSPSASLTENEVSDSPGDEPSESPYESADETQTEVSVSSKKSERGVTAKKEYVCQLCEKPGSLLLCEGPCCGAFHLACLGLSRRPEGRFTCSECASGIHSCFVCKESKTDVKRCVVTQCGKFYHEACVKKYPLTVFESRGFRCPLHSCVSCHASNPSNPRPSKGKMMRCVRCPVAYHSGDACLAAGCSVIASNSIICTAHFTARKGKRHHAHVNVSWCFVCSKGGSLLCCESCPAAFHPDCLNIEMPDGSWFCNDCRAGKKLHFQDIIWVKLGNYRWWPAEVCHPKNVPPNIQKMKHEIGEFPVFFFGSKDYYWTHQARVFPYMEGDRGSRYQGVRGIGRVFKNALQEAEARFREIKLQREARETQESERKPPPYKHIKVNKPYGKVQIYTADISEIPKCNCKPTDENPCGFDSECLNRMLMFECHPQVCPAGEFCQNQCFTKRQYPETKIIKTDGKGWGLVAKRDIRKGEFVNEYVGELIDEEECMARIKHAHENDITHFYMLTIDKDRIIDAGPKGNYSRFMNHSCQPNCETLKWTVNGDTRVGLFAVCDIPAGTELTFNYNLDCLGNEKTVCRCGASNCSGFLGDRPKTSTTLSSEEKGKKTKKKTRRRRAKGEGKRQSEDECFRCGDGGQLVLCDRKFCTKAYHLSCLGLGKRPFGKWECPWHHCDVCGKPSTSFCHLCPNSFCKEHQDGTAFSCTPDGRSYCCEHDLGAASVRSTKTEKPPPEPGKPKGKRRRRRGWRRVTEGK

[3] = test system: Streptococcus sp. 'group A'; assay: growth inhibition of control SK(-) GAS strain, dose response, counter-screen for streptokinase expression inhibitor project, luminescence, kanamycin, BacTiterGlo, confirmation (AID 1900); assay type: functional, organism-based
[4] = molecular target: T3, Protein RecA (Mycobacterium tuberculosis, UniProt P9WHJ3); assay: Fluorescence Cell-Free Homogeneous Dose Retest to Identify Inhibitors of RecA-Intein Splicing Activity. [Related pubchem assays (depositor defined):AID2097, AID2223, AID489010, AID492950]; assay type: functional
T3 sequence (P9WHJ3 whole entry): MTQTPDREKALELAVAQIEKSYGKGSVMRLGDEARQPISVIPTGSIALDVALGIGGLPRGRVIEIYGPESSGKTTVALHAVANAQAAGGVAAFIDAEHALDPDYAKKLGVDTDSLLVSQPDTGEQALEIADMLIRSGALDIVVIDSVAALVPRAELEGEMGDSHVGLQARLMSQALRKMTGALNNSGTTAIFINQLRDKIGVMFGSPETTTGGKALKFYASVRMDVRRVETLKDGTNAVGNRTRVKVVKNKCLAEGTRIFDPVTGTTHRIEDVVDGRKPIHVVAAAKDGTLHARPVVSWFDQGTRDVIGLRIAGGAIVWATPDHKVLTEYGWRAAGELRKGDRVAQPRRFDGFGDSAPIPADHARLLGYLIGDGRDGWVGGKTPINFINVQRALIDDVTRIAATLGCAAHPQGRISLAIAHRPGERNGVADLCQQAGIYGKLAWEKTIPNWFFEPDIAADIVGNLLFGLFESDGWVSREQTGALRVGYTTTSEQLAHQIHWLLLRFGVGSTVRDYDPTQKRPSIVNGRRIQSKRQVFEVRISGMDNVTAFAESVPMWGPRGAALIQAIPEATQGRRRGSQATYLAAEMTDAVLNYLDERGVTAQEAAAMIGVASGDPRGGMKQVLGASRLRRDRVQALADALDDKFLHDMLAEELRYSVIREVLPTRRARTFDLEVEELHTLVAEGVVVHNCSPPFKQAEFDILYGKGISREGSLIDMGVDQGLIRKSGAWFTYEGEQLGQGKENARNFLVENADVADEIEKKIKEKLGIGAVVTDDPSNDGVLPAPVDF

[5] = molecular target: Serine/threonine-protein kinase Nek4 (Homo sapiens, UniProt P51957); assay type: functional
Serine/threonine-protein kinase Nek4, sequence (P51957 whole entry): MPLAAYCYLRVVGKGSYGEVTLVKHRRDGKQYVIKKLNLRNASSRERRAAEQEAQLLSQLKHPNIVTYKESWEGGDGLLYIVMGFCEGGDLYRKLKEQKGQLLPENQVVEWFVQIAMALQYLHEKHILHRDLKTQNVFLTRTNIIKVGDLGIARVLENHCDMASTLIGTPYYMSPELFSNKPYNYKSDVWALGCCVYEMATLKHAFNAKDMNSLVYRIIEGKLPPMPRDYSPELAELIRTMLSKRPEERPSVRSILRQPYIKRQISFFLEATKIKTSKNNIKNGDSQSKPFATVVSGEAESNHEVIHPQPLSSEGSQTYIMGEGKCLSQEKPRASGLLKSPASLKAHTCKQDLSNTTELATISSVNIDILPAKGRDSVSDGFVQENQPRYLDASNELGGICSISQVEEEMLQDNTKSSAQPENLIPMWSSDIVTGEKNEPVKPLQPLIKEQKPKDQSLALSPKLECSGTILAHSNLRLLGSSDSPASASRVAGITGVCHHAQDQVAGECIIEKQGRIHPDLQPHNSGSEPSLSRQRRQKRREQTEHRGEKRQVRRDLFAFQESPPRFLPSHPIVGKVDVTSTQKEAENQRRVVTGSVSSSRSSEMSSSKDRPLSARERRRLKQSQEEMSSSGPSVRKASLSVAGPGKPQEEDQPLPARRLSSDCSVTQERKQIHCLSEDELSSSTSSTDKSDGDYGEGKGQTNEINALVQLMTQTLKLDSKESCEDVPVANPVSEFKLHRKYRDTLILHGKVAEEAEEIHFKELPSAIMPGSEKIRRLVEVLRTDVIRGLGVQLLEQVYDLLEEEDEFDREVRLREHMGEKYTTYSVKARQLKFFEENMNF

[6] = molecular target: Protein kinase C gamma type (Homo sapiens, UniProt P05129); assay type: functional
[7] = molecular target: Non-receptor tyrosine-protein kinase TYK2 (Homo sapiens, UniProt P29597); assay type: functional
[8] = molecular target: Leucine-rich repeat serine/threonine-protein kinase 2 (Homo sapiens, UniProt Q5S007); assay type: functional;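 note: value from a broad kinome-wide panel profiling study in which LRRK2 was one of the kinases tested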
Leucine-rich repeat serine/threonine-protein kinase 2, sequence (Q5S007 whole entry): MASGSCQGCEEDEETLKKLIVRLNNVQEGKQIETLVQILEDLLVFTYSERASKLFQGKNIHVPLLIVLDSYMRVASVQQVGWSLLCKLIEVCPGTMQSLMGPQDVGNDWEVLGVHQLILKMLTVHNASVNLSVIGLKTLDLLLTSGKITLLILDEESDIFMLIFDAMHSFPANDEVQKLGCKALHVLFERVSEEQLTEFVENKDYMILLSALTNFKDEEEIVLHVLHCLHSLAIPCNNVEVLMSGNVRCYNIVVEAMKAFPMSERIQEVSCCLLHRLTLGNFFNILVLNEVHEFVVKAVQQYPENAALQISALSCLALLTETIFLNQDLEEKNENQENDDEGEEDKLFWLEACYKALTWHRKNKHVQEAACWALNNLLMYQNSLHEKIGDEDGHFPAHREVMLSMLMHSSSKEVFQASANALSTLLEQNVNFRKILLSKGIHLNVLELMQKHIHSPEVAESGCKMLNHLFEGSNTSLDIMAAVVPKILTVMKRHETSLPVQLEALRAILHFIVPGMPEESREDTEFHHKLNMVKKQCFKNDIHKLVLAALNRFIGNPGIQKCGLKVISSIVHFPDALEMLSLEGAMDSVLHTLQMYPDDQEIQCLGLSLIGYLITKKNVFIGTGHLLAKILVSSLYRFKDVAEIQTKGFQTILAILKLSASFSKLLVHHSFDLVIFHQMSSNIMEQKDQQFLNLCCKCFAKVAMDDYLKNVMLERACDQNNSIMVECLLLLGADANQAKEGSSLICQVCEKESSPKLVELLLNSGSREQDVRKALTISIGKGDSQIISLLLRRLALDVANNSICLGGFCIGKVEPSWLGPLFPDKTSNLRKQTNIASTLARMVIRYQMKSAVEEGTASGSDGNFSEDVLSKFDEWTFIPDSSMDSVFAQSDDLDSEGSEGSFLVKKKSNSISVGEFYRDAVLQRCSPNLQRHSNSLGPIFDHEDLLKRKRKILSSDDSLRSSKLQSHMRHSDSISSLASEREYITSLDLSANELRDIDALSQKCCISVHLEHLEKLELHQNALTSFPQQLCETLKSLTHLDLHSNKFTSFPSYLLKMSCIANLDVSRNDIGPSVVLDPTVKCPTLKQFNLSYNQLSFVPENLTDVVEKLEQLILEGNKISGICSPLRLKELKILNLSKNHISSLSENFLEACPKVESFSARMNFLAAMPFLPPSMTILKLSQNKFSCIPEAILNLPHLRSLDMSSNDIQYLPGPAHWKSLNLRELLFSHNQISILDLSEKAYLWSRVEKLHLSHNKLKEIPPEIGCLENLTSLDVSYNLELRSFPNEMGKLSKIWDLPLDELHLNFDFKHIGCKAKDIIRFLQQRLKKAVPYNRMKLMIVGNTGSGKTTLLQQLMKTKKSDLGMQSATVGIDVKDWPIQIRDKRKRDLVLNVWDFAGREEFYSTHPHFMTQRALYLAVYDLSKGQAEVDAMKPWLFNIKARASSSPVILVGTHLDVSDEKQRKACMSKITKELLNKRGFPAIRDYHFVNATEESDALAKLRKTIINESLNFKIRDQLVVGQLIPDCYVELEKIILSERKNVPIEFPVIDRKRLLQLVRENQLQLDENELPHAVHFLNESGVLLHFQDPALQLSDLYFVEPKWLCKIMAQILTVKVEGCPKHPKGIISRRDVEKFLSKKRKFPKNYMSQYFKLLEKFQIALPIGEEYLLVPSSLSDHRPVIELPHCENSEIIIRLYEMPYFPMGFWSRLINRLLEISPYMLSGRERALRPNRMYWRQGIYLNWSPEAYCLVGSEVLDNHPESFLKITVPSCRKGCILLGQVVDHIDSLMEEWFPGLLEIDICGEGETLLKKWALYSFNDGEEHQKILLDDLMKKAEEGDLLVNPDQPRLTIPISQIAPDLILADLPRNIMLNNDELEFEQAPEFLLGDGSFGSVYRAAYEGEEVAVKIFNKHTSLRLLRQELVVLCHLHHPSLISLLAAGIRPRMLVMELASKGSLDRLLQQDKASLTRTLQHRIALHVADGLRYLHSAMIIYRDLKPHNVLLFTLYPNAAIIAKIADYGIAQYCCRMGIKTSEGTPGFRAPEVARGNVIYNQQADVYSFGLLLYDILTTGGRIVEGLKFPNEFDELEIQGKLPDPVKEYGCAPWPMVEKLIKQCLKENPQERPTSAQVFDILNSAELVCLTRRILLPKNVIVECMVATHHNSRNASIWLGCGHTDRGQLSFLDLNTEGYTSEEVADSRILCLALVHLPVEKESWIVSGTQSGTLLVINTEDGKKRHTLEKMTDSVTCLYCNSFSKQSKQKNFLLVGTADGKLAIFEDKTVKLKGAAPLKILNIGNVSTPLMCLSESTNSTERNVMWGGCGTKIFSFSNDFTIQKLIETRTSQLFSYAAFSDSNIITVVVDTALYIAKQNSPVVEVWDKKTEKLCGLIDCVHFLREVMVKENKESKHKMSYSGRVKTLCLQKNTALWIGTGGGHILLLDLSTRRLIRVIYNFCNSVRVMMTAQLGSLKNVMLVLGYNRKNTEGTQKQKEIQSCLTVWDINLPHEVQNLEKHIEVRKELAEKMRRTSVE

With `O=C(NN1C(=O)CSC1=S)C(=O)NN1C(=O)CSC1=S` the IC50 [1] was 12.8 µM (active).
In the case of `Cc1ccc2[nH]c(/C(C#N)=C/c3ccc(O)c(O)c3)nc2c1`, the AC50 [2] is reported as 4.37 µM (active).
In the case of `COC(=O)C1CN(C#N)N(c2ccc(Cl)cc2)C12c1ccccc1-c1ccccc12` (stereo not drawn), the EC50 [3] is reported as 4.31 µM (active) and the EC50 [4] is reported as 7 µM (active).
In the case of `Nc1noc2cccc(-c3cccc(O)c3)c12`, the Ki [5] is reported as > 6.31 µM (inactive), the Ki [6] is reported as > 7.94 µM (inactive) and the Ki [7] is reported as > 2 µM (inactive). The Ki [8] was 3.16 µM (active).
